Reference: ChEMBL document CHEMBL6134830, “Naturally inspired chimeric quinolone derivatives to reverse bacterial drug resistance” (Eur J Med Chem, 2025)
Values after ≈ are worked out from the molar mass of the structure shown. Values belong to the molecule of their own block, whether it stands above or below them. Numbered stars: 1 amine (or outer) side, 2 acyl side, 3 side chain; on linkers, the order of the positions; unused ones are H or OH. Peptide text beside a SMILES is read from it. * marks the point of attachment. X1 = O=C(O)c1cn(C2CC2)c2cc(N3CCN(*)CC3)c(F)cc2c1=O; NH(CH2)11CH3 = CCCCCCCCCCCCN*; Suc = O=C(CCC(=O)[*:2])[*:1]

How the values were obtained:
Staphylococcus aureus [1] = experiment: Antimicrobial activity against Staphylococcus aureus ATCC 25923 assessed as inhibition of bacterial growth measured after 20 hrs by CLSI protocol based Muller Hinton broth assay; type: functional
Enterococcus gallinarum = experiment: Antimicrobial activity against Enterococcus gallinarum ATCC 49573 assessed as inhibition of bacterial growth measured after 20 hrs by CLSI protocol based Muller Hinton broth assay; type: functional
[2] = Hemolytic activity in Sprague-Dawley rat Red blood cells at 200 ug/ml incubated for 1 hr by absorbance based analysis; type: toxicity, cell-based; details: erythrocyte, dose 200 µg/ml
Pseudomonas aeruginosa = experiment: Antimicrobial activity against Pseudomonas aeruginosa ATCC 27853 assessed as inhibition of bacterial growth measured after 20 hrs by CLSI protocol based Muller Hinton broth assay; type: functional
Staphylococcus aureus [3] = experiment: Antimicrobial activity against Methicillin-resistant Staphylococcus aureus ATCC 43300 assessed as inhibition of bacterial growth measured after 20 hrs by CLSI protocol based Muller Hinton broth assay; type: functional
Escherichia coli = experiment: Antimicrobial activity against Escherichia coli ATCC 25922 assessed as inhibition of bacterial growth measured after 20 hrs by CLSI protocol based Muller Hinton broth assay; type: functional
Acinetobacter baumannii = experiment: Antimicrobial activity against Acinetobacter baumannii ATCC 19606 assessed as inhibition of bacterial growth measured after 20 hrs by CLSI protocol based Muller Hinton broth assay; type: functional
Enterococcus faecalis = experiment: Antimicrobial activity against Enterococcus faecalis ATCC 19433 assessed as inhibition of bacterial growth measured after 20 hrs by CLSI protocol based Muller Hinton broth assay; type: functional
[4] = Hemolytic activity in Sprague-Dawley rat Red blood cells at 100 ug/ml incubated for 1 hrs by absorbance based analysis; type: toxicity, cell-based; details: erythrocyte, dose 100 µg/ml
L929 = experiment: Cytotoxicity against mouse L929 cells assessed as reduction in cell viability at 25 microg/mL incubated for 24 hrs by MTT assay; type: toxicity, cell-based; details: l929, 24 h, dose 25 µg/ml

MIC (Staphylococcus aureus [1]): 6.25 µg/mL (≈ 7.26 µM)
Structure (SMILES): CCCCCCCCCNC(=O)[C@H](CCCCN)NC(=O)[C@H](CCCCN)NC(=O)c1ccc(C(=O)N2CCN(c3cc4c(cc3F)c(=O)c(C(=O)O)cn4C3CC3)CC2)cc1

MIC (Staphylococcus aureus [1]): 3.12 µg/mL (≈ 3.16 µM)
Structure (SMILES): CCCCCCCCCNC(=O)[C@H](CCCCN)NC(=O)[C@H](CCCCN)NC(=O)[C@H](CCCCN)NC(=O)c1ccc(C(=O)N2CCN(c3cc4c(cc3F)c(=O)c(C(=O)O)cn4C3CC3)CC2)cc1

MIC (Staphylococcus aureus [1]): 3.12 µg/mL (≈ 3.07 µM)
Structure (SMILES): CCCCCCCCCNC(=O)[C@H](CCCCN)NC(=O)[C@H](CCCCN)NC(=O)[C@H](CCCNC(=N)N)NC(=O)c1ccc(C(=O)N2CCN(c3cc4c(cc3F)c(=O)c(C(=O)O)cn4C3CC3)CC2)cc1

MIC (Staphylococcus aureus [1]): ≥ 12.5 µg/mL
Structure (SMILES): NCCCC[C@H](N)C(=O)N1CCN(c2cc3c(cc2F)c(=O)c(C(=O)O)cn3C2CC2)CC1

MIC (Staphylococcus aureus [1]): 6.25 µg/mL (≈ 8.53 µM)
Structure (SMILES): CCCCCCCCCNC(=O)[C@H](CCCCN)NC(=O)c1ccc(C(=O)N2CCN(c3cc4c(cc3F)c(=O)c(C(=O)O)cn4C3CC3)CC2)cc1

MIC (Staphylococcus aureus [1]): 6.25 µg/mL (≈ 9.33 µM)
Structure (SMILES): CCCCCCCCCCCC(=O)N[C@@H](CCCNC(=N)N)C(=O)N1CCN(c2cc3c(cc2F)c(=O)c(C(=O)O)cn3C2CC2)CC1

MIC (Staphylococcus aureus [1]): 6.25 µg/mL (≈ 9.69 µM)
Structure (SMILES): O=C(CC12CC3CC(CC(C3)C1)C2)N[C@@H](Cc1c[nH]cn1)C(=O)N1CCN(c2cc3c(cc2F)c(=O)c(C(=O)O)cn3C2CC2)CC1

MIC (Staphylococcus aureus [1]): 25 µg/mL (≈ 36.2 µM)
Structure (SMILES): CCCCCCNC(=O)[C@H](CCCCN)NC(=O)c1ccc(C(=O)N2CCN(c3cc4c(cc3F)c(=O)c(C(=O)O)cn4C3CC3)CC2)cc1

MIC (Staphylococcus aureus [1]): 12.5 µg/mL (≈ 11.3 µM)
Structure (SMILES): CCCCCCCCCCCCNC(=O)[C@H](CCCCN)NC(=O)[C@H](CCCCN)NC(=O)[C@H](CCCCN)NC(=O)CCCCCCNC(=O)CCC(=O)N1CCN(c2cc3c(cc2F)c(=O)c(C(=O)O)cn3C2CC2)CC1

MIC (Staphylococcus aureus [1]): 6.25 µg/mL (≈ 9.43 µM)
Structure (SMILES): O=C(Cc1ccc(-c2ccccc2)cc1)N[C@@H](Cc1c[nH]cn1)C(=O)N1CCN(c2cc3c(cc2F)c(=O)c(C(=O)O)cn3C2CC2)CC1

The remaining lines, values behind:

Structure (SMILES): NCCCC[C@H](NC(=O)c1ccc(C(=O)N2CCN(c3cc4c(cc3F)c(=O)c(C(=O)O)cn4C3CC3)CC2)cc1)C(=O)N[C@@H](CCCCN)C(=O)N[C@@H](CCCCN)C(=O)NCc1ccc(-c2ccccc2)cc1
MIC (Staphylococcus aureus [1]): 1.56 µg/mL (≈ 1.52 µM) | MIC (Enterococcus gallinarum): 50 µg/mL (≈ 48.6 µM) | Activity [2]: Non-toxic | MIC (Pseudomonas aeruginosa): 25 µg/mL (≈ 24.3 µM) | MIC (Staphylococcus aureus [3]): 6.25 µg/mL (≈ 6.07 µM) | MIC (Escherichia coli): 25 µg/mL (≈ 24.3 µM) | MIC (Acinetobacter baumannii): 25 µg/mL (≈ 24.3 µM) | MIC (Enterococcus faecalis): 50 µg/mL (≈ 48.6 µM)

Structure (SMILES): CCCCCCCCCCCCNC(=O)[C@H](CCCCN)NC(=O)[C@H](CCCCN)NC(=O)[C@H](CCCCN)NC(=O)COCCOCCNC(=O)CCC(=O)N1CCN(c2cc3c(cc2F)c(=O)c(C(=O)O)cn3C2CC2)CC1
MIC (Staphylococcus aureus [1]): 12.5 µg/mL (≈ 11.1 µM)

Structure (SMILES): CCCCCCCCCCCCNC(=O)[C@H](CCCCN)NC(=O)[C@H](CCCCN)NC(=O)[C@H](CCCCN)NC(=O)CCCCCCCCCCCNC(=O)CCC(=O)N1CCN(c2cc3c(cc2F)c(=O)c(C(=O)O)cn3C2CC2)CC1
MIC (Staphylococcus aureus [1]): 3.12 µg/mL (≈ 2.65 µM) | MIC (Enterococcus gallinarum): 6.25 µg/mL (≈ 5.29 µM) | Activity [4]: Toxic | MIC (Pseudomonas aeruginosa): 6.25 µg/mL (≈ 5.29 µM) | MIC (Staphylococcus aureus [3]): 6.25 µg/mL (≈ 5.29 µM) | Activity (L929): Toxic | MIC (Escherichia coli): 12.5 µg/mL (≈ 10.6 µM) | MIC (Acinetobacter baumannii): 6.25 µg/mL (≈ 5.29 µM) | MIC (Enterococcus faecalis): 12.5 µg/mL (≈ 10.6 µM)

Structure (SMILES): CCCCCCCCNC(=O)[C@H](CCCCN)NC(=O)c1ccc(C(=O)N2CCN(c3cc4c(cc3F)c(=O)c(C(=O)O)cn4C3CC3)CC2)cc1
MIC (Staphylococcus aureus [1]): 12.5 µg/mL (≈ 17.4 µM)

Structure (SMILES): CCCCCCCCNC(=O)[C@H](CCCCN)NC(=O)[C@H](CCCCN)NC(=O)[C@H](CCCCN)NC(=O)c1ccc(C(=O)N2CCN(c3cc4c(cc3F)c(=O)c(C(=O)O)cn4C3CC3)CC2)cc1
MIC (Staphylococcus aureus [1]): 3.12 µg/mL (≈ 3.2 µM)

Structure (SMILES): CCCCCCCCCCCCNC(=O)[C@H](CCCCN)NC(=O)[C@H](CCCCN)NC(=O)[C@H](CCCCN)NC(=O)CCNC(=O)CCNC(=O)CCC(=O)N1CCN(c2cc3c(cc2F)c(=O)c(C(=O)O)cn3C2CC2)CC1
MIC (Staphylococcus aureus [1]): 6.25 µg/mL (≈ 5.55 µM)

Structure (SMILES): CCCCCCCCCCNC(=O)[C@H](CCCCN)NC(=O)[C@H](CCCCN)NC(=O)c1ccc(C(=O)N2CCN(c3cc4c(cc3F)c(=O)c(C(=O)O)cn4C3CC3)CC2)cc1
MIC (Staphylococcus aureus [1]): 6.25 µg/mL (≈ 7.14 µM)

Structure (SMILES): NCCCC[C@H](NC(=O)c1ccc(C(=O)N2CCN(c3cc4c(cc3F)c(=O)c(C(=O)O)cn4C3CC3)CC2)cc1)C(=O)NCc1ccc(-c2ccccc2)cc1
MIC (Staphylococcus aureus [1]): 50 µg/mL (≈ 64.7 µM)

Structure (SMILES): CCCCCCCCCCCCNC(=O)[C@H](CCCCN)NC(=O)[C@H](CCCCN)NC(=O)[C@H](CCCCN)NC(=O)[C@H](CO)NC(=O)CCC(=O)N1CCN(c2cc3c(cc2F)c(=O)c(C(=O)O)cn3C2CC2)CC1 ({X1-Suc}-SKKK-{NH(CH2)11CH3})
MIC (Staphylococcus aureus [1]): 6.25 µg/mL (≈ 5.84 µM) | MIC (Enterococcus gallinarum): 25 µg/mL (≈ 23.4 µM) | Activity [4]: Toxic | MIC (Pseudomonas aeruginosa): 50 µg/mL (≈ 46.7 µM) | MIC (Staphylococcus aureus [3]): 12.5 µg/mL (≈ 11.7 µM) | Activity (L929): Toxic | MIC (Escherichia coli): 25 µg/mL (≈ 23.4 µM) | MIC (Acinetobacter baumannii): 12.5 µg/mL (≈ 11.7 µM) | MIC (Enterococcus faecalis): 25 µg/mL (≈ 23.4 µM)

Structure (SMILES): CCCCCCCCCCCCCCCCNC(=O)[C@H](CCCCN)NC(=O)c1ccc(C(=O)N2CCN(c3cc4c(cc3F)c(=O)c(C(=O)O)cn4C3CC3)CC2)cc1
MIC (Staphylococcus aureus [1]): > 100 µg/mL
